These results are taken from patent publication US12172964B2, “Tricyclic octacationic cyclophane and its use in complexation with perlene diimide dyes” (Northwestern University, priority 2020, dated 2024).

A short description of data set [1]: Isothermal titration calorimetry (ITC). The class given is binding. Particulars: for ΔG: directly determined by ITC. The protocol: In all ITC experiments, ExBox.4Cl and XCage.8CF3CO2 were used in titrations. Here we use ExBox^4+ and XCage^8+ for short. All of the solutions were prepared in spectroscopic grade solvents and equilibrated for 24 h at room temperature before use. All of the titrations were independently duplicated—shown below is one set of titration isotherms—and all isotherm fittings were used to calculate the average Ka and ΔH with relevant standard errors.
Isothermal titration was performed by TA Nano Isothermal Titration Calorimeter at 25° C. A hastelloy cell was used with an active cell volume 190 μL. The stirring speed was set at 150 rpm. Receptor and substrate solutions were prepared in Milli-Q water or MeCN and allowed to equilibrate overnight if necessary. […] After subtracting the heat of dilution, the resulting data were analyzed with NanoAnalyze software using a 1:1 binding model and plotted by Origin Lab 8.6 software.
For orientation: Isothermal titration calorimetry measures the heat released or taken up as one component is titrated into another.

Data set [2] can be described thus: Binding thermodynamics of ExBox.4Cl towards PDI2 in water (fluorescence titration / ITC). On the procedure:
Direct fluorescence titration experiments: […] All of the solutions were prepared in spectroscopic grade solvents and equilibrated for 24 h at room temperature before use. All of the titrations were independently duplicated—shown below is one set of titration isotherms—and all isotherm fittings were used to calculate the average Ka and ΔH with relevant standard errors. Isothermal titration was performed by TA Nano Isothermal Titration Calorimeter at 25° C. A hastelloy cell was used with an active cell volume 190 μL. The stirring speed was set at 150 rpm. Receptor and substrate solutions were prepared in Milli-Q water or MeCN and allowed to equilibrate overnight if necessary.

The nature of data set [3]: Binding constants by direct and displacement fluorescence titration. Particulars: for ΔG / Ka Fluorescence: 25° C.; for ΔG: estimated from fluorescence titrations. The protocol: (§1) In all experiments shown below, ExBox.4Cl and XCage.8CF3CO2 were used in titration studies. Here we use ExBox^4+ and XCage^8+ for short. All of the solutions were prepared in spectroscopic grade solvents and equilibrated for 24 h at room temperature before use. All of the studies were independently duplicated and the corresponding isotherms were fitted to calculate the average Ka or kon values with the relevant standard errors.
Direct fluorescence titration experiments: Since the association between PDI2 and ExBox^4+ in H2O produces turn-on fluorescence, we tracked the increase of fluorescence (ex: 545 nm, em: 555 nm) of PDI2 by varying equivalents of ExBox^4+. Caffeine is not fluorescent in H2O and its association with XCage^8+ quenches the fluorescence of XCage^8+. Thus, the fluorescence quenching of XCage^8+ was tracked by the addition of Caffeine. In MeCN, the fluorescence of perylene is quenched by XCage^8+ and thus the titration was performed by tracking the fluorescence quenching of Perylene. A plot of fluorescent intensity versus receptor concentration [R]0 or substrate concentration [S]0 was fitted with a nonlinear least-squares fitting equation for 1:1 binding model to calculate the binding constant Ka using Origin Lab 8.6 software.^S14, S15
Displacement fluorescence titration experiments in H2O: A large access of the competitor caffeine (10 mM) was pre-mixed with XCage^8+ (10 μM), and the solution was equilibrated for 30 min before titration. The substrate solution of PDI2 was injected in aliquots. For each injection, the guest displacement process was relatively slow and took about 3-10 min to reach the equilibrium as monitored by the change of fluorescence (ex: 560 nm, em: 660 nm) over time. At this excitation wavelength, PDI2⊂XCage^8+ is fluorescent; XCage^8+, PDI2 and Caffeine are nonfluorescent. The association constants were calculated by fitting the titration data with a nonlinear least-squares fitting equation for displacement binding using Origin Lab 8.6 software.^S14
Displacement fluorescence titration experiments in MeCN: Perylene (250 μM) was premixed with XCage^8+ (5 μM) in MeCN, and the solution was equilibrated for 30 min before titration. The substrate solution of PDI2 was injected in aliquot amount. Between each injection, the change of fluorescence intensity was monitored over time until the fluorescence (ex: 550 nm, em: 660 nm) intensity reached a steady state. At this excitation wavelength, […] is fluorescent while XCage^8+ and PDI2 are nonfluorescent. The association constants were calculated by fitting the titration data with a nonlinear least-squares fitting equation for displacement binding using Origin Lab 8.6 software.^S14

Data set [4] is described as follows: Binding kinetics of threading PDI2 into XCage.8CF3CO2, tracked by turn-on fluorescence. Conditions: water, second order kinetic model. On the procedure:
as §1
Equal volume of PDI2 (1 μL, 100 μM) and XCage^8+ (1 μL, 100 μM) were mixed in H2O (1 mL) and the change of fluorescence (ex: 540 nm, em: 554 nm) was monitored over time. The resulting threading kinetics profiles were fitted using a second order kinetics model by Origin Lab 8.6 software. In MeCN, the change of fluorescence over time upon the formation of PDI2⊂XCage^8+ is too small to produce a kinetics profile as a result of the similar quantum yield between PDI2⊂XCage^8+ and PDI2.

Data set [5] has as its system MCF-7 cells. In words: Live-cell confocal microscopy. The class given is cell-based, human. Particulars: MCF-7, 10 μM, 6 h. The protocol:
(§2) MCF-7 cells (human breast adenocarcinoma cell line) obtained from American Type Culture Collection (ATCC, Rockville, Md., USA) was utilized for cell culture experiments. MCF-7 cells were cultured in Dulbecco's Modified Eagle's Medium (DMEM) supplemented with 10% fetal bovine serum (FBS), penicillin (100 IU/mL) and streptomycin (100 μg/mL) at 37° C. in the presence of air (95%) and carbon dioxide (5%).
(§3) MCF-7 cells (1×10^5 cells/ml, 300 μL) were plated in each well of an 8-well chamber slide (ThermoFischer Scientific) and adhered overnight. PDI2 or PDI2⊂XCage^8+ was added to each well and incubated for 6 h or 24 h. Cells were then washed with PBS, and stained with LysoTracker green (lysosome stain, 1:1000 dilution) or NucBlue™ Live ReadyProbes™ Reagent (nuclear stain, 1 drop) or Hoechst 33342 nucleic acid stain (1:2000 dilution from 10 mg/mL stock). Plated cells were imaged within a humidified chamber using a 63× oil-immersion objective on a SP5 Leica Confocal Microscope using HyD detectors and lasers or a Deltavision Core Elite with a DAPI excitation filter (381-399 nm), DAPI emission filter (em: 411-459 nm) and TRITC emission filter (em: 571-617 nm) at equivalent light levels and exposure time. Intensity of signal in cells was measured with FIJI/ImageJ software.

Data set [6] relates to MCF-7 cells. In words: Live-cell widefield fluorescence imaging using energy transfer. The data set is classed as cell-based, human. Conditions: MCF-7, 20 μM, 6 h. The protocol: as §2, §3
The nature of data set [7]: Photophysical characterization. The class given is physicochemical. The protocol:
Commercially available solvents and chemicals were purchased from Sigma-Aldrich and Fisher Scientific and used without further purification unless otherwise stated. Water was deionized, and micro filtered using Milli-Q water filtration station. Compounds PDI1^S1 and ExBox.4Cl^S2 were prepared using previously reported procedures. Thin layer chromatography (TLC) was performed on silica gel 60 F254 (E. Merck). Flash column chromatography was performed by Combiflash Rf 200 purification system. Reverse phase column chromatography was performed on Combiflash NEXTGEN 300+ system with SNAP ULTRA C18 cartridges which were purchased from Biotage. UV/Vis Absorption spectra were recorded in a glass cuvette using a UV-3600 Shimadzu spectrophotometer. Steady-state emission spectra were acquired in a quartz cuvette with an optical path-length of 10 mm containing the solution of interest using HORIBA Fluoromax4 spectrofluorometer, which was equipped with an integrating sphere for absolute photoluminescence quantum yield determination and time-correlated single-photon counting (TCSPC) module for emission decays. Nuclear magnetic resonance (NMR) spectra were recorded on Bruker AVANCE III 500 MHz spectrometer equipped with DCH CryoProbe, with working frequencies of 500 MHz for ^1H and 125 MHz for ^13C nuclei. […] High-resolution mass spectra were measured on an Agilent 6210 Time of Flight (TOF) LC-MS, using an ESI source, coupled with Agilent 1100 HPLC stack, using direct infusion (0.6 mL/min). Single crystal data were obtained on a Bruker Kappa APEX2 CCD diffractometer using Cu-Kα radiation. Detailed experimental procedures are provided below in the appropriate sections.
The fluorescence quantum yield of PDI dyes were measured by using rhodamine 6G in EtOH (Φf=0.95) as standard.^S2 The concentrations of rhodamine 6G and PDI dyes were adjusted to the absorption value 0.08 at 450 nm. The fluorescence spectrum of each solution was obtained with excitation at 450 nm, and the integrated area was used in the fluorescence quantum yield calculation. The estimated error for this method^S13 is ±10%. The fluorescent life-time was measured by Horiba Fluoromax-4 fluorometer equipped with TCSPC. Samples were excited by a laser at 374 nm, and the fluorescence decay over time was monitored at 560 nm. The fluorescent decay profiles were analyzed by a DAS6 software and matched either by a single exponential decay or double exponential decay model through mathematic fittings.

Another data set can be described thus: Solubility observations. The data set is classed as physicochemical.

Structures are written as SMILES. “And” between values parts separate entries of the source, which are not always exact repeats. Equal entries are not always repeated. Marks after values point to notes of the source that are not given here.

Turning to `Cn1c(=O)c2c(ncn2C)n(C)c1=O` [Caffeine, reference compound], in data set [1] (H2O, 25° C.), the TΔS was −1.5 kcal mo1^−1, the ΔH was −8.6 kcal mo1^−1 and the ΔG is given as −7.1^c kcal mo1^−1.

In data set [2], `c1cc2ccc1C[n+]1ccc(cc1)-c1ccc(cc1)-c1cc[n+](cc1)Cc1ccc(cc1)C[n+]1ccc(cc1)-c1ccc(cc1)-c1cc[n+](cc1)C2` [ExBox.4Cl] had a binding affinity of 2e+06 M⁻¹ and a binding enthalpy of -7.4 kcal/mol.

Consider `COCCOCCOCCOCCOCCOCCOCCOCCOCCOCCOCCOCCOCCOCCOCCOCCOCCOCCOCCOCCOCCOCCOCCOCCOCCOCCOCCOCCOCCOCCOCCOCCOCCOCCOCCOCCOCCOCCOCCOCCOCCOCCOCCOCCOCCN1C(=O)c2ccc3c4ccc5c6c(ccc(c7ccc(c2c37)C1=O)c64)C(=O)N(CCOCCOCCOCCOCCOCCOCCOCCOCCOCCOCCOCCOCCOCCOCCOCCOCCOCCOCCOCCOCCOCCOCCOCCOCCOCCOCCOCCOCCOCCOCCOCCOCCOCCOCCOCCOCCOCCOCCOCCOCCOCCOCCOCCOCCOC)C5=O` [PDI2], for which, in data set [3] (H2O), the ΔG is −14.8^d kcal mo1^−1. The “Ka Fluorescence” value in data set [3] (H2O, PDI2 by displacement in presence of 1000 molar equivalents of Caffeine) came to 7.7e+10 M⁻¹. The ΔG in data set [3] (MeCN) was −13.0^d kcal mo1^−1. In data set [1] (H2O, 25° C.), this compound displayed a TΔS of 0.7 kcal mo1^−1 and a ΔH of −14.1 kcal mo1^−1. Moreover, in data set [1] (MeCN, 25° C.), the TΔS is 2.8 kcal mo1^−1 and the ΔH was −10.2 kcal mo1^−1. In data set [1] (water versus MeCN), the “binding enthalpy in water higher than in MeCN” value amounted to 4 kcal/mol. Moreover, in data set [4], the kon result is “(4.8±1.1)×10^5 M^−1s^−1”. In the data set on MCF-7 cells [5], the “fluorescence in brightfield-merged confocal images” value is recorded as “no fluorescence”. Moreover, the “fluorescence signal, DAPI excitation filter (ex: 381-399 nm), TRITC emission filter (em: 571-617 nm)” value in the data set with MCF-7 cells [6] is recorded as “did not show any fluorescence signal”. Moreover, in data set [7] (H2O), the logε amounted to 4.48, the Φf is given as 0.04, the λabs is given as 497/534 and the λem is 542/586/633. Further, in data set [7] (H2O), the λex is on record as 461/502/529; the τ was 4.7 ns and 4.71 ns. In data set [7] (MeCN), the fluorescence quantum yield worked out at 66%; the logε turned out to be 4.91; the “red shift of absorption and emission maxima of PDI2 in the presence of XCage.8CF3CO2” value was 23-25 nm; the Φf is reported as 0.66. In data set [7] (MeCN), the λem is on record as 529/568/617, the λex was 452/482/518 and the τ worked out at 4.47 ns. Moreover, the fluorescence quantum yield in data set [7] (water) is 4%.

As to `c1cc2cccc3c4cccc5cccc(c(c1)c23)c54` [Perylene, reference compound], in data set [3] (MeCN, PDI2 by displacement of 50 molar equivalents of Perylene), the “Ka Fluorescence” value turned out to be 5e+06 M⁻¹. Moreover, in data set [1] (MeCN, 25° C.), the “Ka ITC” value is 3.6e+06 M⁻¹, the TΔS was determined as 2.0 kcal mo1^−1, the ΔH is given as −06.9 kcal mo1^−1 and the ΔG is −08.9^c kcal mo1^−1.

Regarding `c1cc2ccc1C[n+]1ccc(cc1)-c1cc3cc(c1)-c1cc4cc(c1)-c1cc[n+](cc1)Cc1ccc(cc1)C[n+]1ccc(cc1)-c1cc(cc(c1)-c1cc(cc(c1)-c1cc[n+](cc1)Cc1ccc(cc1)C[n+]1ccc-3cc1)-c1cc[n+](cc1)C2)-c1cc[n+](cc1)Cc1ccc(cc1)C[n+]1ccc-4cc1` [XCage.8CF3CO2], in data set [3] (MeCN), the “binding constant for Perylene, times higher than that of ExBox^4+.4PF6” value is “about 86”. In addition, the “enhancement of binding affinity towards PDI2 compared with ExBox.4Cl (factor)” value in data set [3] (water) was 38,000. Besides, in data set [1] (water, guest PDI2), the “TΔΔS, loss of binding entropy compared with ExBox.4Cl” value is -0.5 kcal/mol and the “ΔΔH, gain in binding enthalpy compared with ExBox.4Cl” value is -6.7 kcal/mol. In addition, the solubility entry in “Solubility observations” (MeCN) was “slightly soluble”. Moreover, in “Solubility observations” (water and MeOH), the solubility entry is on record as “highly soluble”. In addition, in data set [7] (water), the “blue fluorescence emission range” value is 350-550 nm and the fluorescence quantum yield was 10%.
